Laboratory results reported in ChEMBL document CHEMBL1201862, “PubChem BioAssay data set” (2004).
The source made the active and inactive calls.

How the values were obtained:
[1] = biological target: Alkaline phosphatase, placental type (Homo sapiens, UniProt P05187); test: PLAP enzyme inhibitors, confirmation, biochemical, luminescence (AID 1512); type: functional
[2] = biological target: T1, Alkaline phosphatase, tissue-nonspecific isozyme (Homo sapiens, UniProt P05186); test: human TNAP enzyme inhibitors, SAR follow-up, biochemical, luminescent, dose response (AID 1056)
T1 sequence (P05186 whole entry): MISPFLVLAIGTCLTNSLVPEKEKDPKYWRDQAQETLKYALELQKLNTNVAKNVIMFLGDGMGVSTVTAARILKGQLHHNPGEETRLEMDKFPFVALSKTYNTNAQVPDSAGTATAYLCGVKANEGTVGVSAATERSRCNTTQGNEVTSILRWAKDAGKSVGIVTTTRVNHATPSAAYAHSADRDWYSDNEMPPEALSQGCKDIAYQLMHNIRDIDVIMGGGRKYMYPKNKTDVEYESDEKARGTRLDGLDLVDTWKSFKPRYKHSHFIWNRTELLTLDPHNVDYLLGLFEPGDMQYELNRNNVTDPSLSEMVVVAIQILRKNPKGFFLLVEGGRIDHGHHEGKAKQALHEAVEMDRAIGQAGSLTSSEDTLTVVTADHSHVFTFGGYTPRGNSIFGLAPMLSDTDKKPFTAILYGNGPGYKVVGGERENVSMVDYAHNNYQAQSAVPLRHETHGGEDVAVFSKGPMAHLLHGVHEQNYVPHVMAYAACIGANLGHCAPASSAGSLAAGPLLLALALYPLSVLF

[3] = biological target: T2, Short transient receptor potential channel 4 (Mus musculus, UniProt Q9QUQ5); test: mouse TRPC4 channel inhibitors, dose response, cell-based, HEK293 TRPC4/mu-opioid, Fluo-4 calcium (AID 434942); type: functional;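 note: potency of inhibitors blocking the TRPC4 calcium response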
T2 sequence (Q9QUQ5 whole entry): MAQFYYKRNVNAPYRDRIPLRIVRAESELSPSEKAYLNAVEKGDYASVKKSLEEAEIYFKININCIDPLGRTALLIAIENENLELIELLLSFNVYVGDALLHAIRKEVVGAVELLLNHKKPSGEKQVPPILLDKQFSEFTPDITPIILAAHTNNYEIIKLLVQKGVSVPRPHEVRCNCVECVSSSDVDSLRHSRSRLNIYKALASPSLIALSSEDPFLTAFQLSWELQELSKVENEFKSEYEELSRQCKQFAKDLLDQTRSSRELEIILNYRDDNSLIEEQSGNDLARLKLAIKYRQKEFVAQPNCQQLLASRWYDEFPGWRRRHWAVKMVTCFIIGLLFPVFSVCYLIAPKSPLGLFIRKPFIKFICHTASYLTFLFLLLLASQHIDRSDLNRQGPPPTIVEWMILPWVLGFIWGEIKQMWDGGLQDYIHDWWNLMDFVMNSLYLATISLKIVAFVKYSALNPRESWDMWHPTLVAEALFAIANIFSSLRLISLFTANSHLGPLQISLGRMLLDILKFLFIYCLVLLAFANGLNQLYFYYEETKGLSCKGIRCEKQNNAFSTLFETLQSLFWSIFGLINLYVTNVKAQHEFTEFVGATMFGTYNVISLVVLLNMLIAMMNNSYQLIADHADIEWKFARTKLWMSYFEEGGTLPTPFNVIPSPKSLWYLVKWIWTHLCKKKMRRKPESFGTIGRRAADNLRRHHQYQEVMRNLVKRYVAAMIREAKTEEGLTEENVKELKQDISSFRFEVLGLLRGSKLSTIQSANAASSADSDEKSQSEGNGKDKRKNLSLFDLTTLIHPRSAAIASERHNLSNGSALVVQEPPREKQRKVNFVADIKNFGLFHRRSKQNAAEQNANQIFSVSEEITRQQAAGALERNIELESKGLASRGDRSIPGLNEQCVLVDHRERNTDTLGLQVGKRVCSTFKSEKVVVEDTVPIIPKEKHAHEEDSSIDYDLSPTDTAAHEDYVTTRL

[4] = biological target: Voltage-dependent T-type calcium channel subunit alpha-1H (Homo sapiens, UniProt O95180); type: functional;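 note: channel activity triggered by adding a high calcium stimulation buffer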
Chain of Voltage-dependent T-type calcium channel subunit alpha-1H (O95180 whole entry): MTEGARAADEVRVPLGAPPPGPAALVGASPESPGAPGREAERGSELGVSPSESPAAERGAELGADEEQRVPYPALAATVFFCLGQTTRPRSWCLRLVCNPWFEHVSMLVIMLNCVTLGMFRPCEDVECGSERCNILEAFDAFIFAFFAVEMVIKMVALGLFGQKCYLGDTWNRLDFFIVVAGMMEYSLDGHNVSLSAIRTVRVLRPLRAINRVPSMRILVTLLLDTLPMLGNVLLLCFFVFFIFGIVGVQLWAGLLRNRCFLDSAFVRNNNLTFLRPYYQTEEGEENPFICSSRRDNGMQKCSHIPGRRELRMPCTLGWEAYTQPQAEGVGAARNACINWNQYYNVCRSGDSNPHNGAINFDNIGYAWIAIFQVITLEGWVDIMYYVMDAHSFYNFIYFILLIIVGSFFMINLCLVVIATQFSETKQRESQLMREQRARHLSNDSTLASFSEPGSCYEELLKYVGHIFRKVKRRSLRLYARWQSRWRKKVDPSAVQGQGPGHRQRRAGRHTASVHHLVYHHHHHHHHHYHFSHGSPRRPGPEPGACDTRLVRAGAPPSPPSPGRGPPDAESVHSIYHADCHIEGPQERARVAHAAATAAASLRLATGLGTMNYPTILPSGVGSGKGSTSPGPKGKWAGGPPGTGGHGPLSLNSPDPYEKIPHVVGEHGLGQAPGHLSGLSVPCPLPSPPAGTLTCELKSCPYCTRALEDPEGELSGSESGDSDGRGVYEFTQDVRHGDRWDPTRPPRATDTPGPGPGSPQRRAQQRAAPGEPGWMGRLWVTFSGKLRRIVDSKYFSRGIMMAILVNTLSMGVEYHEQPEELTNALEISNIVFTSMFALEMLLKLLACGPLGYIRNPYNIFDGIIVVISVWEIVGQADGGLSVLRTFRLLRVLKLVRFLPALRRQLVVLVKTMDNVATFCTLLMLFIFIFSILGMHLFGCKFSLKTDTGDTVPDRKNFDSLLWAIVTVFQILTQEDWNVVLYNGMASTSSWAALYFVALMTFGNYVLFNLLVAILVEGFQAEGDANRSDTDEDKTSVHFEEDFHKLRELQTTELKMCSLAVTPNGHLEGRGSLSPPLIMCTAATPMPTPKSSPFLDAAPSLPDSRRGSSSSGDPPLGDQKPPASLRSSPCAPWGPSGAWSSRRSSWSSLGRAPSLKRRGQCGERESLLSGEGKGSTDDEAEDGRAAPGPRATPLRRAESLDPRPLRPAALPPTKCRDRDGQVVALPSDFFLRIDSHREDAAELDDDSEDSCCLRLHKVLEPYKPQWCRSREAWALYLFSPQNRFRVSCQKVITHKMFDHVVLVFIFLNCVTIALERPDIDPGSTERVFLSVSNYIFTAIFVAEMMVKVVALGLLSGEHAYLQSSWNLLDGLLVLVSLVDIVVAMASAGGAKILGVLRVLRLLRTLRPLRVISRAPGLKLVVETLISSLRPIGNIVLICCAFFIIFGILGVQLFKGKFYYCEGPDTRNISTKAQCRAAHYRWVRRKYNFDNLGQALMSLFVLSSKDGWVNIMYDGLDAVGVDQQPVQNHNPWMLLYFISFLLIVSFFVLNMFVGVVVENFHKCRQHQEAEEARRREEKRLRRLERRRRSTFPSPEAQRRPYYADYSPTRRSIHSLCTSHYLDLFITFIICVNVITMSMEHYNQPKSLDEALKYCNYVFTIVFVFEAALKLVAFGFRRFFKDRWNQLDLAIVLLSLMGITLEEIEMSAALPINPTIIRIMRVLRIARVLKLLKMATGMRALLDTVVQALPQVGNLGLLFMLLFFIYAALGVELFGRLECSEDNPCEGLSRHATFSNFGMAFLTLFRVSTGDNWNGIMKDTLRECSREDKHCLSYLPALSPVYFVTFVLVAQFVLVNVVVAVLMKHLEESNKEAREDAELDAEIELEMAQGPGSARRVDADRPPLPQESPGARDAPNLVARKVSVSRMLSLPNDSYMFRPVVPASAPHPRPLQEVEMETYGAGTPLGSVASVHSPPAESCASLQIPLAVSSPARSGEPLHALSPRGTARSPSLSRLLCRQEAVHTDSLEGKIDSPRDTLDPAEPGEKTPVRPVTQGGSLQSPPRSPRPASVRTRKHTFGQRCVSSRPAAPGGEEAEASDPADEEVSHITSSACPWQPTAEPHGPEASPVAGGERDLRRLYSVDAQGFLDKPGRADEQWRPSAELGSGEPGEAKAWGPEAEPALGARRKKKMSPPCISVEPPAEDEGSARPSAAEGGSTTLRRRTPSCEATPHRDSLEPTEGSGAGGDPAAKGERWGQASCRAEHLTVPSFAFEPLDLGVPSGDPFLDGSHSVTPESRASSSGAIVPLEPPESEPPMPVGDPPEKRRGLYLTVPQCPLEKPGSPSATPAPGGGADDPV

[5] = biological target: T3, E3 ubiquitin-protein ligase XIAP (Homo sapiens, UniProt P98170); test: Counter Screen using XIAP-Bir3 for Chemical Antagonists of Bir1/2 domains of IAP-family anti-apoptotic proteins. [Related pubchem assays (depositor defined):AID1018, AID1449, AID1514, AID1638, AID1749, AID1750, AID488957, AID488963]
T3 sequence (P98170 whole entry): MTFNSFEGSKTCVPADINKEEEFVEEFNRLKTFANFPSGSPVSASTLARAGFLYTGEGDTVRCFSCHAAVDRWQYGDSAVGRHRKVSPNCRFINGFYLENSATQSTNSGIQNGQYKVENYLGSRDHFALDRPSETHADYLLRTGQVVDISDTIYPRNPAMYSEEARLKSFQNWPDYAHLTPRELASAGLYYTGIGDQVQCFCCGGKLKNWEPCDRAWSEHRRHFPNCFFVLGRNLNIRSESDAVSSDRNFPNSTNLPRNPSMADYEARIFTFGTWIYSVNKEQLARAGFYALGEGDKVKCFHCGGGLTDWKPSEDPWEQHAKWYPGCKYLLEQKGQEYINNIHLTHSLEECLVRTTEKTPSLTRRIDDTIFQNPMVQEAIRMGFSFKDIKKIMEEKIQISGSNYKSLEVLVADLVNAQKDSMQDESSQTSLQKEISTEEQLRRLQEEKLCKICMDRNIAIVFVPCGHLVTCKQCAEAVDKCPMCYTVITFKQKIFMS

[6] = biological target: T3, E3 ubiquitin-protein ligase XIAP; test: XIAP antagonists, biochemical, IAP family, fluorescence polarization (AID 1018); type: functional
[7] = biological target: T4, Tyrosine-protein phosphatase non-receptor type 22 (Homo sapiens, UniProt Q9Y2R2); type: functional
T4 sequence (Q9Y2R2 whole entry): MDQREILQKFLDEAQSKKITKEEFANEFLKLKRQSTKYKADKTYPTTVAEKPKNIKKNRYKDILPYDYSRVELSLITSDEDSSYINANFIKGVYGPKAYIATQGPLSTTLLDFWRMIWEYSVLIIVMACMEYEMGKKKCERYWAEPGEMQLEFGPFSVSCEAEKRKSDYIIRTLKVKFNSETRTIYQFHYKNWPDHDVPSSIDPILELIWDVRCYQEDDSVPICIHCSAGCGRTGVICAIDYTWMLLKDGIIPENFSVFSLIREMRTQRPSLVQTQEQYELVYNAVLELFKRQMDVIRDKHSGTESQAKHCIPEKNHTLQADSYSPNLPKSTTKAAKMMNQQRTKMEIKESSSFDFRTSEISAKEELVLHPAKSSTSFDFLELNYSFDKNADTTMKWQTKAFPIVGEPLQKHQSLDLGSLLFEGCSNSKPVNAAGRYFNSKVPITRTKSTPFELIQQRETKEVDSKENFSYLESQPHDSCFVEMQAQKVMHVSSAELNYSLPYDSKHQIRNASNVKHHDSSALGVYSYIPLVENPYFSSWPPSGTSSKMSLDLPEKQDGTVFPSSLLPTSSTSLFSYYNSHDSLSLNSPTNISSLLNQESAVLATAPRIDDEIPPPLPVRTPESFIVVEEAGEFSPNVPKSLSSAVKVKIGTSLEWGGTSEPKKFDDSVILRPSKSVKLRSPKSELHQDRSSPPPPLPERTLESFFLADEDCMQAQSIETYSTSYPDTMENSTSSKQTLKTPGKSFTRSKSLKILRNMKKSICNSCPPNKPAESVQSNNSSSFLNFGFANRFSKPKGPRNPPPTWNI

[8] = biological target: T4, Tyrosine-protein phosphatase non-receptor type 22; type: functional; remark: listed apart in the source
[9] = biological target: T5, Tyrosine-protein phosphatase non-receptor type 7 (Homo sapiens, UniProt P35236); type: functional
T5 sequence (P35236 whole entry): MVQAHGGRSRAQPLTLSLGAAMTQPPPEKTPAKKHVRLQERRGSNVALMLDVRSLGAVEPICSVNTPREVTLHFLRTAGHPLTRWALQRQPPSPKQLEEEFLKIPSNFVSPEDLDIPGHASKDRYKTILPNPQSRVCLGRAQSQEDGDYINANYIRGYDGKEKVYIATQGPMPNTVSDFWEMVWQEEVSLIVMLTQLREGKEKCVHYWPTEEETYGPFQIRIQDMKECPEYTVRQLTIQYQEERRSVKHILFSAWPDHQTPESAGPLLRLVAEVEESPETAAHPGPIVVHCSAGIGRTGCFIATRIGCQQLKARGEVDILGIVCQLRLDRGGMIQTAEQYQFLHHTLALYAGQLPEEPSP

[10] = Intein inhibitors as potential Tuberculosis drugs, a cytotoxicity screen. [Related pubchem assays (depositor defined):AID2221, AID2223, AID434968, AID435010, AID449749, AID449750, AID489010]; type: functional
Protein RecA = biological target: T6, Protein RecA (Mycobacterium tuberculosis, UniProt P9WHJ3); test: Fluorescence Cell-Free Homogeneous Dose Retest to Identify Inhibitors of RecA-Intein Splicing Activity. [Related pubchem assays (depositor defined):AID2097, AID2223, AID489010, AID492950]; type: functional
T6 sequence (P9WHJ3 whole entry): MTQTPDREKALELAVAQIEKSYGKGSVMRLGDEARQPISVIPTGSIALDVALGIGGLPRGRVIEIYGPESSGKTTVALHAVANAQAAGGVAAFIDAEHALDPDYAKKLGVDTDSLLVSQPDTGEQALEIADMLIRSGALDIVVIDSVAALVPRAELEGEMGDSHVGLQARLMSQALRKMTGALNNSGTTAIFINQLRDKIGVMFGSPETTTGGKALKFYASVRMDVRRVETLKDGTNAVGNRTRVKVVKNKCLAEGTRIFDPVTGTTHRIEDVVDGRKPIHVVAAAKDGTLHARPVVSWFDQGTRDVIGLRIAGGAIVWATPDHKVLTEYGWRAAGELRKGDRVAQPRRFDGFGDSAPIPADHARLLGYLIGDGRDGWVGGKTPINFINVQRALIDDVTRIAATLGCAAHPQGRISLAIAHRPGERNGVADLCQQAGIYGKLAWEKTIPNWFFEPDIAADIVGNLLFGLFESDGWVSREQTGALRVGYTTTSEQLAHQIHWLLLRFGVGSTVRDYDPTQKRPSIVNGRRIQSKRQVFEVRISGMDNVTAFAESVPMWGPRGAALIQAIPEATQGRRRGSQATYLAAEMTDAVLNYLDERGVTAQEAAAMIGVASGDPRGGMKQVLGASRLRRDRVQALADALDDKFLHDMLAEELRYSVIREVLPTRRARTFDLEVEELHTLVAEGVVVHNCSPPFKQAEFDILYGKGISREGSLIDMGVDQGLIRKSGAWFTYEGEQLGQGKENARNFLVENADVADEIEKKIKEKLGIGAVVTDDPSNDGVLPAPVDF

[11] = biological target: T7, Replicative DNA helicase DnaB (Mycobacterium tuberculosis, UniProt P9WMR3); test: DnaB intein splicing inhibitors, dose response, biochemical, cell-free fluorescence (AID 449749); type: functional
T7 sequence (P9WMR3 whole entry): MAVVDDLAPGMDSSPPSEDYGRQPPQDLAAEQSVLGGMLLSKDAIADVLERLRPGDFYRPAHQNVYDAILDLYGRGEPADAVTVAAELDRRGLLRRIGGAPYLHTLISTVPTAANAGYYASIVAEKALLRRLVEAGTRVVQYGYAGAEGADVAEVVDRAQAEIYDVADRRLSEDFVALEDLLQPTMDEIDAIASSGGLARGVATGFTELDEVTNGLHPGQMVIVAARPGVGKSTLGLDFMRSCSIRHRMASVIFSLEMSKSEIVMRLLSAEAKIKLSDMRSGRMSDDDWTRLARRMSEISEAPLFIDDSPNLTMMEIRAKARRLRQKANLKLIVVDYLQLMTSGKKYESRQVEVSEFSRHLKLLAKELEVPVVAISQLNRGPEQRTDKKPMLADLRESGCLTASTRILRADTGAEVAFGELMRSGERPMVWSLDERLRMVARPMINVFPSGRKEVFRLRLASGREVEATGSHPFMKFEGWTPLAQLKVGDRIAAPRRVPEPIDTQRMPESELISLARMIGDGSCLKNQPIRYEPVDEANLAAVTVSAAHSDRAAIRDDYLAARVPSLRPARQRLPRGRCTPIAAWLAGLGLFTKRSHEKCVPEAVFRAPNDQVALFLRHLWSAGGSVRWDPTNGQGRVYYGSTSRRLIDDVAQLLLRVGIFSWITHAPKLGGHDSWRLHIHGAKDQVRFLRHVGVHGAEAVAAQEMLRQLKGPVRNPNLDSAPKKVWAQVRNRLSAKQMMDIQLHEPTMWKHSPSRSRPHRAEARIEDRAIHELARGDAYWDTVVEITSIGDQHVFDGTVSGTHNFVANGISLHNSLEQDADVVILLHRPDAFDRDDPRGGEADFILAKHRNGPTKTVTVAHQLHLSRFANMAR

[12] = cytotoxicity in HEK-293T cells, dose response, cytotoxicity control for TCR NF-kB inhibitor project, luminescence, T-cell screen hits (AID 489026); type: functional, cell-based;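 note: cells exposed to compound about 14 hours before the viability readout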
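Throughout, for CC50: cells exposed to compound for 72 hours before luminescence readout.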

Chain of Alkaline phosphatase, placental type (P05187 whole entry): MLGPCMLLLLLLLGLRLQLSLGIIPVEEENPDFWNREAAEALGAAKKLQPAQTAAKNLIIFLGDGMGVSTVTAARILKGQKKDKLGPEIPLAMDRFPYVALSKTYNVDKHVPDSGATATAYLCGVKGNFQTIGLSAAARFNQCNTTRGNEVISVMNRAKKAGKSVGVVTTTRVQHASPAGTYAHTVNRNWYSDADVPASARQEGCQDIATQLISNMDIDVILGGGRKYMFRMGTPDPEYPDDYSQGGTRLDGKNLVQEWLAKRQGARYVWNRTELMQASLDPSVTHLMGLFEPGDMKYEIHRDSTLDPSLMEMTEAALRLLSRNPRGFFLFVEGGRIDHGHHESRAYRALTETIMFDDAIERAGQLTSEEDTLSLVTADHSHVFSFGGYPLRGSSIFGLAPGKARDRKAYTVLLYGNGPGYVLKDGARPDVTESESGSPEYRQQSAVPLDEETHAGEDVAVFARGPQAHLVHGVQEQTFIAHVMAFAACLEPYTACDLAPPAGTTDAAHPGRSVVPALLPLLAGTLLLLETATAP

## C=CCn1c(SCC(=O)c2ccc(O)c(O)c2)nnc1-c1ccc(OC)cc1
[1]
  IC50: 13.6 µM (active)
[2]
  IC50: > 100 µM (inactive)

## O=c1oc2ccccc2c(Nc2ccccc2)c1CN1CCCCC1
[3]
  EC50: 3.35 µM (active)

## Cc1oc(-c2ccc(Cl)cc2)nc1CN1CCC(C(=O)NCc2cccs2)CC1
[4]
  EC50: 4.32 µM (active)
[3]
  EC50: 1.5 µM (active)

## CN(C)CCCN(C(=O)c1ccc(S(=O)(=O)N2CCCC2)cc1)c1nc2c(F)cc(F)cc2s1
[3]
  EC50: 3.76 µM (active)

## Cc1cc(C(=O)NCc2ccc(O)c(O)c2)oc1C
[1]
  IC50: 52.7 µM (active)
[2]
  IC50: > 100 µM (inactive)

## COc1ccccc1CNC(=O)COC(=O)Cc1ccsc1
[5]
  IC50: > 100 µM (inactive)
[6]
  IC50: > 100 µM (not active)

## Cc1ccc(S(=O)(=O)c2nc(-c3ccccc3)oc2NCCN2CCOCC2)cc1
[7]
  IC50: > 79.4 µM (inactive)
[8]
  IC50: 75.3 µM (active)
[9]
  IC50: > 79.4 µM (inactive)

## Cc1ccc(-c2nnc(SCC(=O)c3ccc(O)c(O)c3)n2Cc2ccco2)cc1
[1]
  IC50: 5.32 µM (active)
[2]
  IC50: 19.2 µM (active)

## CN(CC(=O)O)c1ccc(C(F)(F)F)cc1[N+](=O)[O-]
[5]
  IC50: > 100 µM (inactive)
[6]
  IC50: > 100 µM (not active)

## COc1cc(NCCCCCCCN)c2ncccc2c1
[10]
  CC50: > 40 µM (active)
Protein RecA
  EC50: 0.401 µM (active)
[11]
  AC50: 2.12 µM (active)
[12]
  IC50: 46.9 µM (inactive)

## Cc1cc(NC(=O)c2cc([N+](=O)[O-])cc([N+](=O)[O-])c2)n(-c2ccccc2)n1
[5]
  IC50: > 100 µM (inactive)
[6]
  IC50: > 100 µM (not active)

## O=C(NCc1ccco1)c1ccc2ccccc2n1
[7]
  IC50: > 79.4 µM (inactive)
[8]
  IC50: > 79.4 µM (inactive)
[9]
  IC50: > 79.4 µM (inactive)
